Common to all, as to format: binding
Experiment [1] has as its target kinases (KINOMEscan panel) (Homo sapiens, UniProt P54756). The settings on record: kinase EPHA5; NEW KINOMEscan.
Experiment [2] concerns the target kinases (KINOMEscan panel) (Homo sapiens, UniProt Q5VT25).
In experiment [3] the target is kinases (KINOMEscan panel) (Homo sapiens, UniProt Q9UIK4). To be noted: kinase DAPK2; NEW KINOMEscan.
The target in experiment [4] is kinases (KINOMEscan panel) (Homo sapiens, UniProt P49840). The settings on record: GSK3A; NEW KINOMEscan.
Experiment [5] addresses kinases (KINOMEscan panel) (Homo sapiens, UniProt O60331). The settings on record: PIP5K1C; NEW KINOMEscan.
Experiment [6] deals with T1, kinases (KINOMEscan panel) (Homo sapiens, UniProt P52333).
T1 sequence (P52333 1-1124): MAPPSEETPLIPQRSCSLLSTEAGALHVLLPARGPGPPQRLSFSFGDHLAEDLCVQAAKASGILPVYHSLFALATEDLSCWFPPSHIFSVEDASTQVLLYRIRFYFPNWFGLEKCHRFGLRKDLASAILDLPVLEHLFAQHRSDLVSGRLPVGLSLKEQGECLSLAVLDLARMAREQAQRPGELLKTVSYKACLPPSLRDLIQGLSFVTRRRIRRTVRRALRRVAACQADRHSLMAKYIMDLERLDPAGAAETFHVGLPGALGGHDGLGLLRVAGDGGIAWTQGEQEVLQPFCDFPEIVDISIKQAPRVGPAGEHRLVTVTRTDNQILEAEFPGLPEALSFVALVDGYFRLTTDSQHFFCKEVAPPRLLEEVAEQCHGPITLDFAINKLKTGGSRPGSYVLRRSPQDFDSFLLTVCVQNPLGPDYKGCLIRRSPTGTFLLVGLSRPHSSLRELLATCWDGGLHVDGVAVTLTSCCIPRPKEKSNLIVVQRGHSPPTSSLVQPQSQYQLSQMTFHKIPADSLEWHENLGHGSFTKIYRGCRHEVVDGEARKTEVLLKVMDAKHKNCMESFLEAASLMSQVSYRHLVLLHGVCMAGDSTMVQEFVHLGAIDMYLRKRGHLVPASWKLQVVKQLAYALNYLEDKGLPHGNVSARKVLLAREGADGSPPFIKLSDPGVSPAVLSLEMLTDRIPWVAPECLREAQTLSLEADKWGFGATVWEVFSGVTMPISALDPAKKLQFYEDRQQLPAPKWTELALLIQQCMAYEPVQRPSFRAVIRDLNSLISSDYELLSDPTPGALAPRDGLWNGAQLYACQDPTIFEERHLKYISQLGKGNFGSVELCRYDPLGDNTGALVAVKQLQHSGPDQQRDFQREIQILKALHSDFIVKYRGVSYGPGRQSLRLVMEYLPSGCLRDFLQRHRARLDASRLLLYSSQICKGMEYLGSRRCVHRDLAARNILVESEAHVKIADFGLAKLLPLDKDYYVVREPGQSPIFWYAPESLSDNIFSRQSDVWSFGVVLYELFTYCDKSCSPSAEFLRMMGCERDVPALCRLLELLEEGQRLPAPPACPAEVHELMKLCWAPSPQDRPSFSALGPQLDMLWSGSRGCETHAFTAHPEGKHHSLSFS
The settings on record: kinase JAK3(JH1domain-catalytic); NEW KINOMEscan.

In experiment [7] the target is T2, kinases (KINOMEscan panel) (Homo sapiens, UniProt Q09013).
T2 sequence (Q09013 1-629): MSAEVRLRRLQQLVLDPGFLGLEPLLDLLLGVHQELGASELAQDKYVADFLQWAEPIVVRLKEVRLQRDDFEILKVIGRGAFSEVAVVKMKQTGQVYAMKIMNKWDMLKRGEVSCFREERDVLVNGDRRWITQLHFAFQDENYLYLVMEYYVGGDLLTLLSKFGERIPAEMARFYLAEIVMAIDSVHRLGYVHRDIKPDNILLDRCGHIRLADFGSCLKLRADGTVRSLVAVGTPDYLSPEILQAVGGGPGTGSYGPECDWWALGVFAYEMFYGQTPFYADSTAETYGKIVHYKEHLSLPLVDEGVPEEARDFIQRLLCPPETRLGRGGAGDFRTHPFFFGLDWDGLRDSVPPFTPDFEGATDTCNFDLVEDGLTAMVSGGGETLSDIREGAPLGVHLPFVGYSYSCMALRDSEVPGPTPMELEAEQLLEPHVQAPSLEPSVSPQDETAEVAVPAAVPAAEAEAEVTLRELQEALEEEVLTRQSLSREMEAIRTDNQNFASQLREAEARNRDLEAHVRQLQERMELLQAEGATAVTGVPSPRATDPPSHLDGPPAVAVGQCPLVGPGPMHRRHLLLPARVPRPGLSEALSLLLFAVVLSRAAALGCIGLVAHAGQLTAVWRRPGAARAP
To be noted: kinase DMPK; NEW KINOMEscan.

Experiment [8] addresses kinases (KINOMEscan panel) (Homo sapiens, UniProt P49137).
In experiment [9] the target is kinases (KINOMEscan panel) (Homo sapiens, UniProt P42685). The settings on record: kinase FRK; NEW KINOMEscan.
Sequence of kinases (KINOMEscan panel) (Homo sapiens, UniProt P42685) (P42685 whole entry): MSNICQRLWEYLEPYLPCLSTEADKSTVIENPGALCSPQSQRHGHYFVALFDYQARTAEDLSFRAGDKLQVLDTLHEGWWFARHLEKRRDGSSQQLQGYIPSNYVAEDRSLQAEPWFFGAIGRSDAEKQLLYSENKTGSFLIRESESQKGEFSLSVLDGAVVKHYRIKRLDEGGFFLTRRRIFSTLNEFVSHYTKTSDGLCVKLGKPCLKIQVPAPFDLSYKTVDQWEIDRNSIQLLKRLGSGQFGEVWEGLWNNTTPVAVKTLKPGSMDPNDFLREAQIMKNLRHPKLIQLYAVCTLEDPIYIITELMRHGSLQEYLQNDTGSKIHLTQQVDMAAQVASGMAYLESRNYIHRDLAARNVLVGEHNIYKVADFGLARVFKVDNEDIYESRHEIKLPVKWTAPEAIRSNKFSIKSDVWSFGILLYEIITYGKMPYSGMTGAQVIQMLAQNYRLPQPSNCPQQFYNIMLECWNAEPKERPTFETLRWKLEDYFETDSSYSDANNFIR

SMILES strings stand for the structures. Like-named read-outs stand apart in the source and are kept apart here.

Sequence of kinases (KINOMEscan panel) (Homo sapiens, UniProt Q5VT25) (Q5VT25 whole entry): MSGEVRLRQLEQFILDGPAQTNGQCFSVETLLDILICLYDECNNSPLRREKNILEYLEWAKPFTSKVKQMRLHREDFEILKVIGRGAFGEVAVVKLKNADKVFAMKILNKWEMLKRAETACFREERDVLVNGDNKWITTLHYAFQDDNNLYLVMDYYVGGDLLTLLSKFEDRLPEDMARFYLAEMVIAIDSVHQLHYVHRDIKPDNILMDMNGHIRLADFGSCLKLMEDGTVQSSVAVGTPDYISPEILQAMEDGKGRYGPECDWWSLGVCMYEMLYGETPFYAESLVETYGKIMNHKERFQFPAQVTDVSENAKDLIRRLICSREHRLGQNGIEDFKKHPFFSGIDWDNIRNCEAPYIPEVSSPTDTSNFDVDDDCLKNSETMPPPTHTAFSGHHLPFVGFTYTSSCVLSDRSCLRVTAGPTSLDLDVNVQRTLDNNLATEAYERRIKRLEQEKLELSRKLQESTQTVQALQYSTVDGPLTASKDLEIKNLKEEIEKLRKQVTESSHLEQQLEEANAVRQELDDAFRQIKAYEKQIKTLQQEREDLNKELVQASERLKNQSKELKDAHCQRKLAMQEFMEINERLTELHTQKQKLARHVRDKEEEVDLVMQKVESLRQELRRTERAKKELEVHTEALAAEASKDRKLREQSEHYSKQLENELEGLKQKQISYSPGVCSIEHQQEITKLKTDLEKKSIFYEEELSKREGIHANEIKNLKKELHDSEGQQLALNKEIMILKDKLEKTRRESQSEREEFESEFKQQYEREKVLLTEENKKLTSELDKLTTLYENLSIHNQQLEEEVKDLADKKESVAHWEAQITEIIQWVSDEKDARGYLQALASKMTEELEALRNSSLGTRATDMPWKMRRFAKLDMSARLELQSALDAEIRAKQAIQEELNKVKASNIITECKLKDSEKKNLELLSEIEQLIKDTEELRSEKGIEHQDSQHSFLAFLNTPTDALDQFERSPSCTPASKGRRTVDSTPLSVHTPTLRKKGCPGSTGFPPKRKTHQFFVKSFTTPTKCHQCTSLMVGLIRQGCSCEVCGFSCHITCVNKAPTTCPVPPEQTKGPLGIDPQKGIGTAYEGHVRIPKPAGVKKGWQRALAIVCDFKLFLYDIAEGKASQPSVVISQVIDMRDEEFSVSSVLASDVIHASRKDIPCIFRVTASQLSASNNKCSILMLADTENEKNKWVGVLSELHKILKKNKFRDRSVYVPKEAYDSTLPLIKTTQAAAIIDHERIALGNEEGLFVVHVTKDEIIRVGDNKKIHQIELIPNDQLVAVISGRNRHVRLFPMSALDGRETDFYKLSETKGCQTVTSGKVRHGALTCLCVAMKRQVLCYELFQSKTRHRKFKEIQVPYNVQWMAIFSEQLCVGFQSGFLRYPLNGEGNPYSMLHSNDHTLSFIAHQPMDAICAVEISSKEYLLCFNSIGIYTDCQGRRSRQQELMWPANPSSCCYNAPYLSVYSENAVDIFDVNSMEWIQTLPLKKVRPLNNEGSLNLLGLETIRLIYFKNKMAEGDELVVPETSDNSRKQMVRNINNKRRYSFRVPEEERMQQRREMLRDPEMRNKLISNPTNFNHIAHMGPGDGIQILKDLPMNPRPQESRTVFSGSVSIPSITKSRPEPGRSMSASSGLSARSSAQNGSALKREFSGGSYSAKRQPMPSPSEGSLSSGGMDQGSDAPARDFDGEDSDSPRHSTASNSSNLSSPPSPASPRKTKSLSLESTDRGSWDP
Sequence of kinases (KINOMEscan panel) (Homo sapiens, UniProt Q9UIK4) (Q9UIK4 whole entry): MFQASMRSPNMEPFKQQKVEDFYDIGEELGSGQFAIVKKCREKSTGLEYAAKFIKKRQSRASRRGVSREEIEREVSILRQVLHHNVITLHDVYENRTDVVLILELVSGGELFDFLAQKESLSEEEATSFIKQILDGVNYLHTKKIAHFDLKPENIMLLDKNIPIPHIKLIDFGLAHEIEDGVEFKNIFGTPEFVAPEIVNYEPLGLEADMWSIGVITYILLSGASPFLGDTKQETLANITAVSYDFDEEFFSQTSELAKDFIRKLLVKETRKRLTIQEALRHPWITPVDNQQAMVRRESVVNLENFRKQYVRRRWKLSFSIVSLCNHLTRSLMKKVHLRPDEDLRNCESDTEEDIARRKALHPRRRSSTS
Sequence of kinases (KINOMEscan panel) (Homo sapiens, UniProt O60331) (O60331 whole entry): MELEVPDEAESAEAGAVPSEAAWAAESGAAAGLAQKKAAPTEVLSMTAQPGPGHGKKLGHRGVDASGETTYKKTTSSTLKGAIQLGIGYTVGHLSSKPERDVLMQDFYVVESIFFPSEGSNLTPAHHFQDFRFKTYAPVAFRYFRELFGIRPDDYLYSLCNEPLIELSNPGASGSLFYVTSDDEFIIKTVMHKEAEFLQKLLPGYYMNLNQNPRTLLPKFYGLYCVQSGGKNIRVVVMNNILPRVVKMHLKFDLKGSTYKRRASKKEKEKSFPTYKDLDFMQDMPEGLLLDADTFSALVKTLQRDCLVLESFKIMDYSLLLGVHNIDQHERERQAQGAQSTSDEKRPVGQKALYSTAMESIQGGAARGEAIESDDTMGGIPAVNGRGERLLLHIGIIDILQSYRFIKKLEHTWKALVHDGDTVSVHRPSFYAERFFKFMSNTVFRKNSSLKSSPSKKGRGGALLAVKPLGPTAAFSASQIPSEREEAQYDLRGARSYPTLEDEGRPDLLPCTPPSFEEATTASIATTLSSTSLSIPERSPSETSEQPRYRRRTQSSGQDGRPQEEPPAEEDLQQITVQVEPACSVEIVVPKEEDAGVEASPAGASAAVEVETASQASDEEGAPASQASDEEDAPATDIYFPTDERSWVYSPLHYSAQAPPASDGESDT
Sequence of kinases (KINOMEscan panel) (Homo sapiens, UniProt P49137) (P49137 whole entry): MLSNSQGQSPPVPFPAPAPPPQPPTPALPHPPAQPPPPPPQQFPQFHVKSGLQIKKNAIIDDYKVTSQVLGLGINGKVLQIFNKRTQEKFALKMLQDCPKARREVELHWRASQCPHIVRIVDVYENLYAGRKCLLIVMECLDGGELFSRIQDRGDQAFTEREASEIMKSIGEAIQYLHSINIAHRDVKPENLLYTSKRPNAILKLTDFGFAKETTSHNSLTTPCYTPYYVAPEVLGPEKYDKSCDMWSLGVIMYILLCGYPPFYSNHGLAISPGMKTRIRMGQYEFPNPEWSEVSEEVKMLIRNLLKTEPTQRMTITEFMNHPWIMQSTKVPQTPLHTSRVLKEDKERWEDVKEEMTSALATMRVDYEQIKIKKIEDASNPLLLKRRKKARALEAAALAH
Sequence of kinases (KINOMEscan panel) (Homo sapiens, UniProt P54756) (P54756 25-1037): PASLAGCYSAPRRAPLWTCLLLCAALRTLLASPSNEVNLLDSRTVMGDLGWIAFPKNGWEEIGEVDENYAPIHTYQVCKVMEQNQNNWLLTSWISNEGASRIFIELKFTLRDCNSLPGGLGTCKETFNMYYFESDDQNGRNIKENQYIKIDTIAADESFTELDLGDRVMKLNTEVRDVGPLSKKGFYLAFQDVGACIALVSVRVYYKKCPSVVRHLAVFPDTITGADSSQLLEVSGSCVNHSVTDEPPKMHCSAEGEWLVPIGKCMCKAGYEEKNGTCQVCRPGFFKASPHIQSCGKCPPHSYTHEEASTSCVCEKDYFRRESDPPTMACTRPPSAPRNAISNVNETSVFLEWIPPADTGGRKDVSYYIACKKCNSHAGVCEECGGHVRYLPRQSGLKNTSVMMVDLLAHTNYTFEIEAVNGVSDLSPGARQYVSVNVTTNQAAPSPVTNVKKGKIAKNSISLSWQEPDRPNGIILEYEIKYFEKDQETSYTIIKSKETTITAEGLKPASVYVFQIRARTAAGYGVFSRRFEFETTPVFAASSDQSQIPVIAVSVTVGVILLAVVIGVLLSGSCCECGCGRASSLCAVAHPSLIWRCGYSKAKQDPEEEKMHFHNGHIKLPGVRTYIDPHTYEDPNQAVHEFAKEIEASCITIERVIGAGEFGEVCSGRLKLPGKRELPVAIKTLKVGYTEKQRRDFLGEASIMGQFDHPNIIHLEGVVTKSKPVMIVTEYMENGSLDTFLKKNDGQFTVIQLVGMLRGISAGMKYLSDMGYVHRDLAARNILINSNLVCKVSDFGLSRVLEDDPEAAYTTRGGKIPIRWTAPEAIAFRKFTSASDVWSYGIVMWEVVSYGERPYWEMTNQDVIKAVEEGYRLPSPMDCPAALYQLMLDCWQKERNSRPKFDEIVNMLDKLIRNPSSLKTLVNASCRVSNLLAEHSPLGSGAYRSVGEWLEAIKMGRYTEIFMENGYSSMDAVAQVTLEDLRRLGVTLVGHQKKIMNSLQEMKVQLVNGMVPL

In the case of `Cc1cccc(-c2nc(N(C)c3ccc4ncsc4c3)c3ccccc3n2)n1` [NK-161], the “KINOMEscan EPHA5” value in experiment [1] was determined as 9. Also, in experiment [2], the “KINOMEscan CDC42BPA/MRCKA” value was found to be 5. For the same compound, the “KINOMEscan DAPK2” value in experiment [3] was determined as 0. Also, the “KINOMEscan GSK3A” value in experiment [4] came to 0. Also, the “KINOMEscan PIP5K1C” value in experiment [5] turned out to be 1. For the same compound, in [6], the “KINOMEscan JAK3(JH1domain-catalytic)” value worked out at 0. Moreover, the “KINOMEscan DMPK” value in experiment [7] was determined as 0. Also, in [8], the “KINOMEscan MAPKAPK2” value was 0. Moreover, the “KINOMEscan FRK” value in experiment [9] was 0.

As to `Cc1cccc(-c2nc(Nc3ccc4nn(C)cc4c3)c3ccccc3n2)n1` [NK167], the “KINOMEscan EPHA5” value in [1] is 0. In experiment [2], the “KINOMEscan CDC42BPA/MRCKA” value amounted to 0. Also, the “KINOMEscan DAPK2” value in experiment [3] was found to be 0. Besides, the “KINOMEscan GSK3A” value in experiment [4] turned out to be 0. In addition, the “KINOMEscan PIP5K1C” value in [5] turned out to be 18. Further, the “KINOMEscan JAK3(JH1domain-catalytic)” value in experiment [6] worked out at 0. For the same compound, the “KINOMEscan DMPK” value in experiment [7] is listed as 0. In addition, the “KINOMEscan MAPKAPK2” value in experiment [8] (kinase MAPKAPK2, NEW KINOMEscan) came out at 0. Moreover, the “KINOMEscan FRK” value in experiment [9] is 0.
